Experimental data from US20220098547A1, “HYDROGEL BIOMIMETIC FOR INVASIVE DISEASES” (priority 2018, published 2022).

Legend:
TSC2+/− LAM-SMCs [1] = assay: Cell invasion into 3D HA hydrogels, LAM-SMCs; assay type: cell-based, human; details: for invasion, selectivity towards LAM-SMCs vs control SMCs: 80 kinase inhibitor screen, 5 μM, 384-well 3D hydrogel
Protocol: (§1) HA (230 kDa) was functionalized with furfurylamine as previously described^[16] Furanyl-modified HA/MMPx-(maleimide)2 hydrogels were prepared as previously described ^[16] with the following modifications: To prepare 1.0 mL of 0.9% HA hydrogel with 25 μM vitronectin peptide for SMC culture, HA-furanyl (65% furanyl substitution, 9.0 mg HA, 13.3 μmol furanyl) was dissolved in 450 μL of dPBS (adjusted to pH 6.5), and added to 357.7 μL of dPBS (pH 6.5). 150.1 μL of maleimide2-MMP-degradable crosslinker peptide dissolved in 0.1 M MES buffer (pH 5.5, 50 mg/mL, 2.8 μmol of peptide, 5.6 μmol of maleimide) and 3.75 μL of maleimide-vitronectin peptide dissolved in 0.1 M MES buffer (pH 5.5, 12 mg/mL, 25 nmol) were added to the HA-furanyl solution and carefully mixed to prevent the formation of air bubbles. 38.5 μL of a thiolated methyl cellulose solution (2.6 mg/mL MC-SH in DI H2O, 100 nmolfree thiols/mgMC) was then added to this solution and mixed carefully with a pipette. Hydrogel formulations were tuned for lung cancer cells. For culturing primary cells from lung cancer tissue biopsies, 100 μM vitronectin peptides were used. For NCI-H1299, NCI-H446 and human bronchial epithelial cells, 100 μM vitronectin peptides and 100 μM fibronectin peptides were used. To prepare gels in 384-well plates, 15 μL of the hydrogel solutions were added to each well in a 384-well plate and placed in the incubator overnight at 37° C.
(§2) Excess sterile water was then added to wells lining the outside of the plates to prevent hydrogel evaporation. […] Gels were then equilibrated with either RPMI-1640 containing 1% FBS (for lung cancer cells) or M231 SMC media (75 μL, >45 mins). Media was then removed, and for SMC culture, 15 μL of M231 supplemented with 25% SMGS (containing a final FBS concentration of 1%) was added into each well for at least 1 h prior to cell seeding. For drug treatment assays, this 15 μL volume of M231 with 25% SMGS also includes a 5× concentration of the desired drug. For larger drug screening assays, Y-27632 (Rock inhibitor, 10 μM) was used as a negative control for cell invasion, and verteporfin (1 μM) was used as a positive control for cell toxicity (SyTox Green staining). For lung cancer cell culture, cells in RPMI media containing 1% FBS was added to each well.
(§3) SMCs were cultured according to reported protocols.^[12a] In brief, cells were cultured in M231 media with Smooth Muscle Growth Supplement (SMGS) and gentamycin (ThermoFisher Scientific) at 37° C. with 5% CO2. Cells were passaged using 0.05% trypsin/EDTA for 3 min at 37° C., and inhibited using M231 media. 3000 cells in 45 μL of M231 without SMGS were added to each well of a 384-well plate containing 3D HA hydrogels.
(§4) After 5 days of culture in 3D HA gels, 30 μL media was carefully removed. To each well, 20 μL of a solution containing SyTox Green (1/50,000) in PBS was added and incubated for 1.5 h at 37° C. Gels were then carefully washed with PBS twice. Cells were then fixed with 4% PFA for 1.5 h in the dark at room temperature. PFA was removed and gels were washed with PBS. A solution of Hoechst (1/1000, 20 μL) was then added to each well for at least 1.5 h in the dark, followed by washing with PBS (3 times). To label the gel surface, fluorescent microspheres (100 nm, orange, Phosphorex) were diluted in PBS (1/100) and centrifuged to separate larger, aggregated microspheres. 20 μL of the resulting supernatant were then added to each well and the 384-well plate was left undisturbed overnight. For drug screening experiments involving treatment with 80 drugs simultaneously, silica gel particles (40-63 μm, 230-400 mesh, SiliCycle) were used to label the […]. A slurry solution (5 mg/mL) of silica gel particles in PBS containing 0.01% sodium azide was mixed and immediately added to each well. Particles settled after 20 seconds and plates could be immediately imaged.
(§5) Z-stacked images were obtained using a Cellomics high content imaging instrument as described above. […]

TSC2+/− LAM-SMCs [2] = assay: Cell viability (SyTox Green), LAM-SMCs; assay type: cell-based, human; details: for cell viability, selectivity towards LAM-SMCs vs control SMCs: 80 kinase inhibitor screen, 5 μM, 384-well 3D hydrogel
Protocol: as §1, §2, §3, §4, §5

TSC2+/+ control SMCs = assay: Cell invasion into 3D HA hydrogels, control SMCs; assay type: cell-based, human; details: Y-27632 treatment (10 μM per FIG. 8 legend)
Protocol: as §1, with “To prepare gels in 384-well plates, 15 μL of the hydrogel solutions were added to each well in a 384-well plate and placed in the incubator overnight at 37° C.” left out

MMP9 = assay: Gelatin zymography of conditioned media (MMP9 secretion), LAM-SMCs; assay type: cell-based, human; details: Y-27632 treatment (10 μM per FIG. 8 legend)
Protocol: After 1 day of culture, conditioned media from 384-well plates was collected from each well for gelatin zymography. 8% polyacrylamide (PA) gels were used, and were prepared as previously described^[22] In general, the separating gel component of the zymography gels comprised 7.5 mL of 1.5 M Tris buffer (pH 8.8), 8.0 mL polyacrylamide solution (30%), 10.2 mL gelatin A (3 mg/mL), 2.7 mL water, 300 μL SDS, 300 μL 10% ammonium persulfate, and 36 μL TEMED. The separating gel was allowed to gel for 40 min at room temperature. The stacking gel was then prepared by mixing 5.0 mL of 0.5 M Tris buffer (pH 6.8), 2.6 mL polyacrylamide solution (30%), 12.2 mL water, 200 μL SDS, 150 μL 10% ammonium persulfate, and 30 μL TEMED. The stacking gel was poured on top of each gel and allowed to sit for 40 mins.
For each sample, 12 μL of conditioned media was mixed with 3 μL loading dye, and 12 μL was loaded into each lane. Running buffer comprising 25 mM Tris, 190 mM glycine and 0.1% SDS was used for gel electrophoresis. Following protein separation on the PA gels, gels were washed in 2.5% Triton X (3 times, 10 min each) to remove residual SDS, followed by DI water (5 times, 30 min each). Gels were then placed in an incubation buffer (50 mM Tris buffer pH 7.5 containing 5 mM CaCl2, 200 mM NaCl) and incubated at 37° C. overnight. […]

VEGF-A = details: some glioblastoma patients; cited from earlier work
VEGF-A, sequence (P15692 207-311 limits assumed): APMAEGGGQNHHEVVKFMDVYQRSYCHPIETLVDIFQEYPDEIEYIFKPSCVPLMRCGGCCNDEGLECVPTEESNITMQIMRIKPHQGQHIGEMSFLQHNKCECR

Compound	invasion, selectivity towards LAM-SMCs vs control SMCs (TSC2+/− LAM-SMCs [1])	cell viability, selectivity towards LAM-SMCs vs control SMCs (TSC2+/− LAM-SMCs [2])	other results
CN1CCC(c2c(O)cc(O)c3c(=O)cc(-c4ccccc4Cl)oc23)C1CO (single isomer, unassigned; (+)) [(+)-P276]	selective decrease	selective decrease	
Cc1ncc(-c2ccnc(Nc3ccc(S(C)(=O)=O)cc3)n2)n1C(C)C [AZD5438]	selective decrease	selective decrease	
Nc1nc(Nc2ccc(S(N)(=O)=O)cc2)nn1C(=S)Nc1c(F)cccc1F [Cdk1/2 inhibitor]	selective decrease	selective decrease	
Cc1cc(Nc2cc(N3CCN(C)CC3)nc(/C=C/c3ccccc3)n2)n[nH]1 [ENMD-2076]	selective decrease	selective decrease	
CNC(=O)[C@H](Cc1c[nH]c2ccccc12)NC(=O)[C@@H](CC(=O)NO)CC(C)C [GM6001]			cell invasion (TSC2+/− LAM-SMCs [1]; 10 μM, invasive LAM-SMCs, 3D hydrogels): modest, yet statistically significant decrease in cell invasion
CC(C)CC(=O)Nc1[nH]nc2c1CN(C(=O)C1CCN(C)CC1)C2(C)C [PHA-793887]	selective decrease	selective decrease	
C[C@@H](N)[C@H]1CC[C@H](C(=O)Nc2ccncc2)CC1 [Y-27632]			cell invasion (TSC2+/− LAM-SMCs [1]; Y-27632 treatment (10 μM per FIG. 8 legend), LAM-SMCs): significantly decreased cell invasion; cell invasion (TSC2+/+ control SMCs): significantly decreased cell invasion; MMP9 secretion levels (MMP9): neither cell viability nor MMP9 secretion levels of LAM-SMCs were affected; cell viability (TSC2+/− LAM-SMCs [2]; Y-27632 treatment (10 μM per FIG. 8 legend), LAM-SMCs, 3D HA gels): neither cell viability nor MMP9 secretion levels of LAM-SMCs were affected
TC-A 2317 NCI	selective decrease	selective decrease	
bevacizumab			tumor metastasis (VEGF-A): increased tumor metastasis; tumor size (VEGF-A): decreased tumor sizes
